Earlier results, collected in US20250099443A1, “METHODS FOR SYNTHESIZING ALEUTIANAMINE AND ANALOGS THEREOF” (California Institute of Technology, priority 2023, published 2025).
pIC50: −log10 of the molar value.

System: human pancreatic adenocarcinoma cell line PANC-1

O=C1C2=C3C4=[N+](CCc5c[nH]c1c54)[C@@H]1C[C@]34S[C@@H](C=C4C=C1Br)N2 [Aleutianamine]
pIC50 (human pancreatic adenocarcinoma cell line PANC-1, read-out: IC50 against PANC-1): 7.60 | potency against PANC-1 relative to gemcitabine (times greater than that of gemcitabine): over 160 times
